From patent publication US6746663B2, “Porphyrin compounds” (Photochemical Co., Ltd., priority 1999, dated 2004)
Counter-ions that a name gives are not always drawn.

Experiments:
[1] = Photosensitizing oxidation reaction using Dansyl methionine; settings: for Degree of Photo Reaction (reaction end time): 0.1 μM photosensitizer, 10 μM Dansyl methionine in chloroform, halogen lamp irradiation, time until Dansyl methionine disappeared on TLC, smaller = stronger
Experimental: (§1) Albumin test is a test method for evaluating the affinity to cancerous tissues, in which a chlorin derivative is examined on the change in ultraviolet (UV) absorption spectrum in a mixture form with albumine, and dancyl methionine test is also a convenient test method for evaluating the strength of the photoreactivity by thin layer chromatography (TLC) or high performance liquid chromatography (HPLC) (see Japanese Patent Application Laid-open No. 5-97857).
To 1 ml of chloroform, 10 μM of Dansyl methionine, a substrate, was added, and then 0.1 μM of the photosensitizer of the present invention [sodium salt of NOEt-P-Asp(I)] was further added. Laser irradiation was conducted using Cold Spot PICL-SX (Nippon P.I. Co., Ltd.) which is halogen lamp, has 150 W wave length and 80,00 Lux, under stirring. The reaction solution was spotted at every minute on TLC plate (Kieselgel 60F254), and developed with chloroform methanol (3:2), then Dansyl methionine and its oxide (Dansylmethionine sulfoxide) were confirmed using UV lamp (254 nm). The time that Dansylmethionine disappeared completely on TLC plate was stated as the end of the reaction time, and photo oxidation reaction of photosensitizer was compared.
Photofrin II (Trade Mark) was used as a control of photosensitizer of present invention.

[2] = test system: tumor tissues of colon cancer Colon 26; assay: Evaluation on tissue accumulability (cancer/organ concentration by surface fluorescence); assay type: in vivo; settings: 10 mg/kg intravenous, 3H/He mice bearing Colon 26, 1 to 24 hours after administration, FIG. 2
Experimental: In the graph, the curve No.1 represents the result of cancer/brain, the curve No.2 represents the result of cancer/liver, the curve No.3 represents the result of cancer/lung, the curve No.4 represents cancer/muscle, the curve No.5 represents cancer/kidney, and the curve No.6 represents cancer/plasma.
3H/He mice (5 per group) implanted with tumor tissues of colon cancer Colon 26 for 14 to 21 days, were given an intravenous injection of sodium salt of each of NOEt-P-Asp(I) (10 mg/kg for each mouse) which had been diluted with a distilled water for injection. The blood samples were collected and the organs bearing the tumor tissue were extirpated after the injection, irradiated with N2-pulsed laser (N2, wavelength: 337 nm, 2 ns, 400-1,000 nm), and the excited fluorescent spectrum was measured. The wavelength in the range of 600 to 900 nm was examined based on the peak wavelength of NADH at 470 nm (determination of the distribution of the test compound in the organ by the surface fluorescence method using N2-pulsed laser spectrophotometry). That is, the distributed concentration of sodium salt of NOEt-P-Asp(I) in cancer/organ (or plasma) ratio was determined by calculating the peak wavelength at 670 nm when the peak wavelength at 470 nm was considered as the basic value, 1.

albumin = albumin (Homo sapiens, UniProt P02768); assay: Albumin test (change in UV absorption spectrum in mixture with albumin); assay type: binding
albumin, sequence (P02768 25-609, species assumed): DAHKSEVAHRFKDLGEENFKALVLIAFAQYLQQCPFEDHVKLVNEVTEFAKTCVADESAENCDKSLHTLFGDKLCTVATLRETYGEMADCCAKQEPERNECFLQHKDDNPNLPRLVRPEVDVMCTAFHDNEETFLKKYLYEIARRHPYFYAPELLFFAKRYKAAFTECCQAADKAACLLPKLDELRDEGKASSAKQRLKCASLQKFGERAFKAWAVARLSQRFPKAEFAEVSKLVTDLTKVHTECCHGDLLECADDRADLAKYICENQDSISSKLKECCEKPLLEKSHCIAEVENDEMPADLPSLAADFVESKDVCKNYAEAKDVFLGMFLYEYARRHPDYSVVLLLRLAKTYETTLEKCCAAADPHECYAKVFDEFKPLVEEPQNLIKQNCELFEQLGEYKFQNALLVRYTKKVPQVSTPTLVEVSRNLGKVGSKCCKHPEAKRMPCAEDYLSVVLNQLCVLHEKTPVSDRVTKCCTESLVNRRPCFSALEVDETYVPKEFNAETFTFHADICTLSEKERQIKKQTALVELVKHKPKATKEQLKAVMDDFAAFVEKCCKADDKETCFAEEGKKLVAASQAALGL
From the text: as §1

13,17-bis[(1,2-dicarboxyethyl)carbamoylethyl]-8-ethenyl-2-hydroxy-3-etoxyiminoethylidene-2,17,12,18-tetramethyl-porphyrin [NOEt-P-Asp(II) Na salt]
Degree of Photo Reaction (reaction end time) [1]: 4 min

C=Cc1c(C)c2cc3nc(cc4[nH]c(cc5nc(cc1[nH]2)C(C)(O)C5=CC=NOCC)c(C)c4CCC(=O)NC(CC(=O)O)C(=O)O)C(CCC(=O)NC(CC(=O)O)C(=O)O)=C3C (centres unmarked) [NOEt-P-Asp(I) Na salt, 13,17-bis[(1,2-dicarboxylethyl)carbamoylethyl]-3-ethenyl-7-hydroxy-8-ethoxyiminoethylidene-2,7,12,18-tetramethyl-porphyrin]
accumulability to cancerous tissues (cancer/organ or plasma concentration ratio) [2]: much higher accumulability to cancerous tissues | Degree of Photo Reaction (reaction end time) [1]: 4 min

C=Cc1c(C)c2cc3nc(cc4[nH]c(cc5nc(cc1[nH]2)C(C)(O)C5=CC=NOCC)c(C)c4CCC(=O)NC(CC(=O)O)C(=O)O)C(CCC(=O)NC(CC(=O)O)C(=O)O)=C3C (centres unmarked) [NOEt-P-Asp(I), 13,17-bis[(1,2-dicarboxylethyl)carbamoylethyl]-3-ethenyl-7-hydroxy-8-ethoxyiminoethylidene-2,7,12,18-tetramethyl-porphyrin]
transferability to cancerous tissues (affinity to cancerous tissues) (albumin): excellent transferability to cancerous tissues | photosensitivity (strength of photoreactivity) ([1]; dancyl methionine test, result in words): strong photosensitivity
